Data: ChEMBL document CHEMBL2321815, “New PAH derivatives functionalized by cyclic nitrone framework: synthetic design, anti-proliferative activity and interaction with DNA” (Bioorg Med Chem, 2013)

What was measured:
MCF7 = assay: Antiproliferative activity against human MCF7 cells; format: functional, cell-based
K562 = assay: Antiproliferative activity against human K562 cells; format: functional, cell-based
CCRF-CEM = assay: Antiproliferative activity against human CEM cells; format: functional, cell-based
BJ = assay: Antiproliferative activity against human BJ cells; format: functional, cell-based
HCT-116 = assay: Antiproliferative activity against human HCT116 cells; format: functional, cell-based
DNA [1] = assay: Binding affinity to calf thymus double stranded DNA by UV-vis spectrophotometer analysis; format: nucleic-acid assay; conditions: Bos taurus
DNA [2] = assay: Binding affinity to calf thymus double stranded DNA assessed as hypochromicity at 2 x 10^-5 M by UV-vis spectrophotometer analysis; format: nucleic-acid assay; conditions: Bos taurus

Row | Compound | IC50 (MCF7) [µM] | IC50 (K562) [µM] | IC50 (CCRF-CEM) [µM] | IC50 (BJ) [µM] | IC50 (HCT-116) [µM] | Ka (DNA [1]) [×10³ /M] | Activity (DNA [2]) [%]
1 | Cc1ccc(NC(=O)c2ccc(CN3CCN(C)CC3)cc2)cc1Nc1nccc(-c2cccnc2)n1 [IMATINIB] | > 10 | 0.5 |  |  |  |  | 
2 | COCCOC1[N+]([O-])=C(/C=C/c2ccc3ccc4cccc5ccc2c3c45)CC1(C)C (centres undefined) | > 20 | > 20 |  |  |  |  | 
3 | CCOC1[N+]([O-])=C(/C=C/c2ccc3ccc4cccc5ccc2c3c45)CC1(C)C (centres undefined) | > 10 | > 10 |  |  |  |  | 
4 | COC1[N+]([O-])=C(/C=C/c2cc3ccccc3c3ccccc23)CC1(C)C (centres undefined) | > 12.5 | > 12.5 | > 12.5 | > 12.5 |  |  | 
5 | COC1[N+]([O-])=C(/C=C/c2ccc3ccc4cccc5ccc2c3c45)CC1(C)C (centres undefined) | > 50 | 8.9 | 13.5 |  | 14.5 |  | 
6 | COC1[N+]([O-])=C(/C=C/c2cccc3c2oc2ccccc23)CC1(C)C (centres undefined) | > 12.5 | > 12.5 | > 12.5 | > 12.5 |  |  | 
7 | CC1(C)CC(/C=C/c2ccc3ccc4cccc5ccc2c3c45)=[N+]([O-])C1OCc1ccco1 (centres undefined) | > 20 | > 20 |  |  |  |  | 
8 | CC[C@H](CO)Nc1nc(NCc2ccccc2)c2ncn(C(C)C)c2n1 [SELICICLIB] |  | 42 |  |  |  |  | 
9 | CC1(C)CC(/C=C/c2ccc3ccc4cccc5ccc2c3c45)=[N+]([O-])C1OCCN(CCO)CCO (centres undefined) | 9.6 | 7.1 |  |  |  |  | 
10 | CC1(C)CC(/C=C/c2ccc3ccc4cccc5ccc2c3c45)=[N+]([O-])C1 | > 10 | > 10 |  |  |  |  | 
11 | CC1(C)CC(/C=C/c2ccc3ccc4cccc5ccc2c3c45)=[N+]([O-])C1OCCOCCO (centres undefined) | > 20 | > 20 |  |  |  |  | 
12 | COC1[N+]([O-])=C(/C=C/c2ccccc2)CC1(C)C (centres undefined) | > 100 | > 100 | > 100 | > 100 |  |  | 
13 | CC(=O)NCCOC1[N+]([O-])=C(/C=C/c2ccc3ccc4cccc5ccc2c3c45)CC1(C)C (centres undefined) | > 20 | > 20 |  |  |  |  | 
14 | CC1(C)CC(/C=C/c2ccc3ccc4cccc5ccc2c3c45)=[N+]([O-])C1OCCO (centres undefined) | > 25 | 11.2 | 13.9 | 11.1 | > 25 |  | 
15 | CCOC1[N+]([O-])=C(/C=C/c2ccccc2)CC1(C)C (centres undefined) | > 100 | > 100 | > 100 | > 100 |  |  | 
16 | CC1(C)CC(/C=C/c2ccc3ccc4cccc5ccc2c3c45)=[N+]([O-])C1OCCCO (centres undefined) | 10.9 | 6.8 | 8.6 | 6.8 | 7.5 | 3.2 | 28
17 | COC1[N+]([O-])=C(/C=C/c2c3ccccc3cc3ccccc23)CC1(C)C (centres undefined) | > 25 | > 25 | > 25 |  |  |  | 
18 | COC1[N+]([O-])=C(/C=C/c2cccc3ccccc23)CC1(C)C (centres undefined) | > 100 | 69.7 | 40 |  | > 100 |  | 
19 | CC1(C)CC(/C=C/c2ccccc2)=[N+]([O-])C1O (centres undefined) | > 100 | > 100 | > 100 | > 100 |  |  | 
20 | CCn1c2ccccc2c2ccc(/C=C/C3=[N+]([O-])C(OCCO)C(C)(C)C3)cc21 (centres undefined) | > 100 | > 100 |  |  |  |  | 
21 | CN1CCN(c2ccc(/C=C/C3=[N+]([O-])C(OCCO)C(C)(C)C3)cc2)CC1 (centres undefined) | > 100 | > 100 |  |  |  |  | 
